Measured values: patent US20200289521A1, “USE OF VITAMIN K IN COMBINATION WITH ANTICOAGULANTS” (KAYDENCE PHARMA AS, priority 2019, published 2020)

Columns and labels:
[1] = system: human vascular smooth muscle cells (hVSMCs); experiment: ATP measurement in hVSMCs with warfarin and/or vitamin K2 (luminescence); type: cell-based; conditions: 24 hours; warfarin 10 or 50 μM, vitamin K2 (MK-7) 10 μM
Experimental: This study was performed in order to determine the effect of vitamin K2 (MK-7) on warfarin-induced oxidative stress in muscles. To perform this study, human vascular smooth muscle cells (hVSMCs; 5,000 cells/well) were plated in 96-well dark plates and left to adhere overnight. Next, cells were incubated for 24 hours with either vehicle only (as blank control), warfarin (10 or 50 μM), vitamin K2 (MK-7) (10 μM), or a combination of warfarin (50 μM) and vitamin K2 (MK-7) (10 μM). Hoechst was added to correct for cell number (1 μg/mL). Next, ATP was measured using mammalian lysis buffer for 5 minutes after which 50 μL ATP substrate solution was added to the wells and incubated for 10 minutes in a dark environment. Finally, medium was transferred to a white plate to measure luminescence.

VSMCs [2] = experiment: Warfarin-induced oxidative stress in VSMCs, warfarin concentration series (DCFDA); type: cell-based; conditions: warfarin 10 to 100 μM, fluorescence over 6 hours
Experimental: It is known that the level of reactive oxygen species in cells can be measured by measuring the conversion of 2′,7′-dichlorofluorescein diacetate (DCFDA) to the fluorescent dye 2′,7′-dichlorofluorescein (DCF). The fluorescence generated by cells subjected to DCFDA is directly proportional to the amount of oxidized DCFDA to DCF.
In this study, vitamin K metabolism was blocked using the vitamin K-antagonist warfarin. The study was conducted to investigate whether interference with vitamin K metabolism would cause intracellular oxidative stress. To perform the study, VSMCs (10,000 cells/well) were plated in 96-well plates and left to adhere overnight. Next, cells were incubated for 1 hour with 20 μM DCFDA. The medium was then changed to a medium supplemented with different concentrations of warfarin ranging from 10 to 100 μM, and fluorescence intensity was measured over 6 hours. Fluorescence was normalized for number of cells.

VSMCs [3] = experiment: Hypoxia (CoCl2) induced oxidative stress in VSMCs (DCFDA); type: cell-based
Experimental: This study was performed to determine whether intracellular oxidative stress in VSCMs is derived from mitochondrial dysfunction. To perform this study, VSMCs were incubated with cobalt chloride, a known stabilizer of HIF1a. Cobalt chloride binding to HIF1a prevents the degradation of HIF1a and thus results in a cellular hypoxia state. HIF1a has been implicated in cancer biology as well as a number of other pathophysiologies, specifically in areas of vascularization and angiogenesis, energy metabolism, cell survival, and tumor invasion. Under normal circumstances, after injury, HIF1a is degraded by the enzyme prolyl hydroxylase (PHD). The continued up-regulation of HIF1a (mimicked by cobalt chloride) promotes tumor growth and metastasis through its role in initiating angiogenesis and regulating cellular metabolism to overcome hypoxia. Hypoxia promotes apoptosis in both normal and tumor cells. Additionally, hypoxia generates significant intracellular oxidative stress.
To perform the study, VSMCs (10,000 cells/well) were plated in a 96-well plate and left to adhere overnight. Next, the medium was changed to a medium supplemented with 50 μM CoCl2 for 19 hours. The next day, cells were washed and incubated for 1 hour with 20 μM DCFDA in the presence of a vehicle (solvent for CoCl2 and vitamin K2 (MK-7)/UQ10), 10 μM vitamin K2 (MK-7), or 10 μM UQ10 in medium. The medium was then changed to a medium supplemented with vehicle, vitamin K2 (MK-7)/UQ10, or CoCl2, and fluorescent was measured for 6 hours. Fluorescence intensity was normalized for cell count.

VSMCs [4] = experiment: ATP increase in VSMCs, 48 hours, with CoCl2 arm (luminescence); type: cell-based
Experimental: (§1) This study was performed to further investigate the origin of ATP production that is influenced by vitamin K2 (MK-7). To perform this study, VSCMs (5000 cells/well) were plated in 96-well plates and left to adhere overnight. Next, cells were incubated for 48 hours with either vehicle, CoCl2 (100 μM), vitamin K2 (MK-7) (10 μM), or UQ10 (10 μM). Hoechst was added to correct for cell number (1 μg/mL). Next, ATP was measured using mammalian lysis buffer for 5 minutes, after which 50 μL ATP substrate solution was added to the wells and incubated for 10 minutes in a dark environment. Finally, medium was transferred to a white plate to measure luminescence.

VSMCs [5] = experiment: ATP increase in VSMCs, 24 hours (luminescence); type: cell-based; conditions: 10 μM
Experimental: This study was performed to determine if vitamin K2 (MK-7) affects ATP generation. ATP is generated via glycolysis in the cytoplasm and via both the Krebs-cycle and oxidative phosphorylation in the mitochondria. ATP generation via glycolysis delivers only 2 ATP, whereas ATP generation in the mitochondria generates some 32 ATP.
as §1, with “To” for “This study was performed to further investigate the origin of ATP production that is influenced by vitamin K2 (MK-7). To”, “24” for “48”, “vehicle,” for “vehicle, CoCl2 (100 μM),”, “minutes” for “minutes,”, “Finally, the” for “Finally,”, “luminescence” for “luminescence.”

[6] = system: whole-blood thrombogenicity; experiment: T-TAS Total Thrombus-formation Analysis of whole blood from treated Sprague-Dawley rats; type: in vivo; conditions: for AUC: area under flow pressure curve for 30 min, dabigatran 7.5, rivaroxaban 5.0, MK-7 1.5 mg/kg/day; for AUC / OT (time, min) / T10 (time, min): two weeks in diet; for OT (time, min) / T10 (time, min): dabigatran 7.5, rivaroxaban 5.0, vitamin K2 (MK-7) 1.5 mg/kg/day
Experimental: (§2) This experiment was conducted in order to evaluate the effects of vitamin K2 (MK-7) on the anticoagulant activity of the new oral anticoagulants (NOAC) rivaroxaban and dabigatran using the T-TAS Total Thrombus-formation Analysis System. The T-TAS Total Thrombus-formation Analysis System is a microchip-based flow chamber system capable of evaluating whole-blood thrombogenicity. It is a useful tool in monitoring the efficacy of anticoagulants on thrombus formation and predicting the risk of bleeding complications. To perform the study, 45 wild-type male Sprague-Dawley and 45 transgenic male Ren-2 rats [TGR(mREN-2)27] at the age of 10-11 weeks at the beginning of the treatment period were purchased from animal facility IKEM-CEM Institute of Clinical and Experimental Medicine (Prague, Czech Republic). All animals in the experiment were housed in individually ventilated cages (2-3 rats per cage) and kept in the animal rooms of JCET at a relative humidity of 55±10%, a temperature of 22±2° C., and a light cycle of 7 AM to 7 PM. The rats had free access to food and water. After delivery, animals were randomly divided into 10 experimental groups (5 or 10 rats per group), as indicated below in Table 1. Four days before the start of the treatment, the first part of animals' body weight and food intake was measured in selected representative three cages (rats n=9) to calculate the appropriate amount of tested compounds required for addition to the diet to obtain the dosing indicated in Table 1. It was estimated that food intake was approximately 30 g of chow per rat per day. The animals were fed for two weeks with AIN-93G diet supplemented with rivaroxaban or dabigatran with/without Vitamin K2 (MK-7), as indicated in Table 1. The animals were then anesthetized in order to draw blood samples for further analysis. The body mass of the rats was measured at the beginning and at the end of treatment. At the beginning and at the end of treatment, the food intake per day was measured in representative group of animals to monitor the daily dosing of tested compounds (per kg of body mass). The thrombus formation in vitro was measured in whole blood using a microchip-based flow chamber system according to manufacturers' protocol (Total Thrombus-formation Analyser System, T-TAS; Fujimori Kogyo Co., Ltd., Tokyo, Japan). For the analysis, citrated whole blood (480 μl) was mixed with 20 μl of 300 mM CaCl2 solution containing 1.25 mg/ml CTI (Corn Trypsin Inhibitor). […] The obtained flow pressure pattern for each sample was used to analyze thrombus formation based on the following estimated parameters: […]

[7] = system: whole-blood thrombogenicity; experiment: T-TAS Total Thrombus-formation Analysis of whole blood from treated TGR rats; type: in vivo, transgenic Ren-2 rats [TGR(mREN-2)27]; conditions: for AUC: area under flow pressure curve for 30 min, dabigatran 7.5, rivaroxaban 5.0, MK-7 1.5 mg/kg/day; for AUC / OT (time, min) / T10 (time, min): two weeks in diet; for OT (time, min) / T10 (time, min): dabigatran 7.5, rivaroxaban 5.0, vitamin K2 (MK-7) 1.5 mg/kg/day
Experimental: as §2

| SMILES | AUC [6] | OT (time, min) [6] [min] | T10 (time, min) [6] [min] | AUC [7] | OT (time, min) [7] [min] | T10 (time, min) [7] [min] | other results |
| --- | --- | --- | --- | --- | --- | --- | --- |
| CC(=O)CC(c1ccccc1)c1c(O)c2ccccc2oc1=O (stereo not drawn) [warfarin] |  |  |  |  |  |  | cell ATP / ATP generation [1]: does not affect ATP generation; intracellular oxidative stress (VSMCs [2]): did cause intracellular oxidative stress |
| COC1=C(OC)C(=O)C(C/C=C(\C)CC/C=C(\C)CC/C=C(\C)CC/C=C(\C)CC/C=C(\C)CC/C=C(\C)CC/C=C(\C)CC/C=C(\C)CC/C=C(\C)CCC=C(C)C)=C(C)C1=O [UQ10] |  |  |  |  |  |  | hypoxia induced oxidative stress (VSMCs [3]; 50 μM CoCl2 for 19 hours, test substance 10 μM, 6 hours): This effect was not found; ATP levels compared to CoCl2 (VSMCs [4]; 10 μM vs CoCl2 100 μM): significant higher ATP levels; ATP production compared to the vehicle (VSMCs [5]): only vitamin K2 (MK-7) increased ATP production |
| [Cl][Co][Cl] [CoCl2, cobalt chloride] |  |  |  |  |  |  | oxidative stress induced by the hypoxia inducer (VSMCs [3]; 50 μM CoCl2): induces increased oxidative stress; ATP production compared to vehicle (VSMCs [4]; CoCl2 100 μM, vitamin K2 (MK-7) 10 μM): decreased ATP production |
| O=C(NC[C@H]1CN(c2ccc(N3CCOCC3=O)cc2)C(=O)O1)c1ccc(Cl)s1 [Rivaroxaban] | 2011 ± 28.7 | 6.133 ± 0.518 | 3.732 ± 0.266 | 1876 ± 91.28 | 8.324 ± 1.578 | 4.996 ± 0.8216 | thrombus formation ([6]; anticoagulant alone): inhibited thrombus formation; thrombus formation ([7]; anticoagulant alone): also inhibited thrombus formation |
| [H]/N=C(/N)c1ccc(NCc2nc3cc(C(=O)N(CCC(=O)O)c4ccccn4)ccc3n2C)cc1 [Dabigatran] | 2039 ± 32.5 | 5.753 ± 0.587 | 3.386 ± 0.237 | 1898 ± 80.66 | 8.011 ± 1.317 | 4.780 ± 0.7073 |  |
